In patent US20080318892A1, “METHODS AND FORMULATIONS FOR PROTECTING CELLS, AND FOR TREATING DISEASES AND CONDITIONS BY OPTIMIZING THE INTRACELLULAR CONCENTRATION OF NAD” (priority 2007, published 2008):

How the values were obtained:
[1] = system: primary human vascular SMCs; assay: Replicative lifespan (cumulative population doublings) of primary SMCs; assay type: cell-based; settings: primary adult SMCs overexpressing Nampt
HITB5 SMC's [2] = assay: Apoptosis by TUNEL; assay type: cell-based, human; settings: PBEF-overexpressing HITB5 SMCs; p<0.01
Protocol: (§1) Cell Proliferation, DNA Synthesis, and Apoptosis were also evaluated. To assess SMC proliferation, cells were plated at a density of 3000 cells per cm^2 and cultured in M199 containing 5% FBS. Triplicate wells were harvested at the designated times and counted using a hemacytometer. To quantify DNA synthesis, cells in log-phase growth were incubated for 12 hours with [^3H]thymidine (10 μCi/mL) and TCA-precipitable counts determined as described (5). Thymidine incorporation was expressed relative to DNA content, quantified by spectrofluorimetry of an aliquot of cell lysate incubated with 500 μg/ml Hoechst 33258. Apoptosis was assessed in SMCs seeded on glass coverslips by in situ end-labeling of DNA fragments using terminal deoxynucleotide transferase and fluorescein 12-dUTP (Promega) (5). Cells were fixed with 4% paraformaldehyde and counterstained with Hoechst 33258.

[3] = system: human aortic endothelial cells; assay: Longevity and genomic stability (tetraploidy) of human aortic endothelial cells under glucose stress; assay type: cell-based; settings: for longevity: cells overexpressing NamPT
Excerpt: Generation of Nampt-overexpressing HAEC populations. HAEC were infected with retrovirus encoding an eGFP-Nampt fusion protein. A control population was infected with eGFP alone. Transduced HAEC were FACS selected for low (eGFP-Namptlo) and high (eGFP-Nampthi) levels of transgene expression based on GFP fluorescence. Control cells were selected to achieve eGFP expression (eGFP+) at a level similar to the eGFP-Namptlo cells. Levels of GFP fluorescence were confirmed by microscopy.
Assessment of longevity and genomic stability. Triplicate cell populations were plated at 1000 cells/cm2 and were serially subcultured at 80% confluence until growth curves reached plateau. Population doublings were calculated using the standard formula. At certain time points cells were harvested, fixed, and DNA content was analyzed. Tetraploid cells were counted as a proportion of the total population using ModFit software.

HITB5 SMC's [4] = assay: SMC proliferation (cell accumulation over 11 days); assay type: cell-based, human; settings: PBEF-overexpressing HITB5 SMCs, 5% serum, p<0.01 vs EGFP control
Protocol: as §1

For “PBEF: 52-55 kD protein, rate-limiting enzyme for NAD+ biosynthesis from nicotinamide; tested by retroviral cDNA overexpression in cells”, the “additional population doublings beyond vector-infected SMCs” value [1] was 2.1±0.3 population doublings, the prolongation of lifespan ([1]; p=0.01) was 34±4% and the “proportion of apoptotic SMC's relative to HITB5-EGFP SMC's” value (HITB5 SMC's [2]) was “approximately half”. The “age- or high glucose-induced tetraploidy” value ([3]; Nampt overexpressing cells) was “no occurrence”, the longevity ([3]; glucose stress (30 mM glucose)) was “significantly augmented longevity” and the longevity ([3]; normal glucose (5 mM)) was “mildly improved longevity”. The doubling time (HITB5 SMC's [4]) was 5.4 days.
